According to US20220144823A1, “PYRAZOLOPYRIDINE DERIVATIVES AS INHIBITORS OF PASK” (Galapagos NV, priority 2019, published 2022):

Tests used:
human PASK [1] = target: T1, human PASK (Homo sapiens, UniProt Q96RG2); experiment: ADP-Glo kinase assay; assay type: biochemical; details: ADPGlo PASK kinase assay, 25 μM ATP, ZIPtide 25 μM
T1 construct: purchased ThermoFisher Scientific PR7013A
Experimental: The ADP-Glo™ kinase assay is a luminescent technology assay which measures the ADP formed from a kinase reaction. In this specific study, the kinase reactions consisted of the phosphorylation of the ZIPtide peptide substrate by human recombinant PASK. In a second step the kinase reaction is terminated and all the remaining ATP is depleted. In a final step the ADP is converted into ATP and this newly synthesized ATP is measured by using a luciferase/luciferin reaction. The generated light is measured using an Envision plate reader, wherein the luminescent signal obtained positively correlates with the kinase activity.
The test compounds are prepared as a serial dilution of 10 point dose responses with 1/5 dilution steps in 100% DMSO starting from 2 mM highest concentration, diluted 1/20 in water and 1 μL is transferred to the assay plates (PerkinElmer Inc., Cat #6007290).
(§1) 1% DMSO and 10 μM staurosporine final concentrations are used respectively as negative and positive controls.
2 μL enzyme-substrate mixture is added to the assay plates.
The reaction is started by adding 2 μL diluted ATP on the assay plates immediately after addition of the enzyme-substrate mixture to the compound. Plates are centrifuged for a few seconds at 1000 rpm and gently shaken for 2 min followed by an incubation at RT for 120 min.
The reactions are stopped and the unconsumed ATP is depleted by adding 5 μL ADP-Glo Reagent (Promega, Cat #V912B) to the reaction. The plates are centrifuged for a few seconds at 1000 rpm and incubated at RT for 40 min (ATP depletion).
The ADP is converted to ATP and luciferase and luciferin is introduced to detect ATP by adding 10 μL Kinase Detection Reagent (Promega, Cat #V913B+V914B) to the reaction. The plates are centrifuged for a few seconds at 1000 rpm and incubated at RT for 30 min (ADP detection).
Luminescence is measured on an Envision plate reader (PerkinElmer Inc.).
Raw data are generated following the read-out performed on the Envision plate reader, used to calculate percentage inhibition (PIN) values and plotted to generate dose response curves and derive the average half maximal inhibitory concentrations (IC50) reported in Table VIII.

human PASK [2] = target: T1, human PASK; experiment: 33P radioactive kinase assay; assay type: biochemical; details: 33P radioactive PASK kinase assay, 10 μM ATP, ZIPtide 1 μM
Experimental: The principle of the ^33P radioactive kinase assay consists in measuring the incorporated ^33P into the ZIPtide peptide substrate when phosphorylated by human PASK using [^33P]-[…]-ATP and ATP, which correlates with kinase activity.
The test compounds are prepared as a serial dilution of 10 point dose responses with 1/5 dilution steps in 100% DMSO starting from 0.2 or 2 mM highest concentration, diluted 1/20 in water and 5 μL is transferred to the assay plates (Greiner, Cat #651201).
as §1
11 μL of enzyme-substrate mixture is added on the assay plates. The reactions are started by adding 9 μL ATP mixture, consisting of non-labeled and ^33P-labeled ATP, on the assay plates.
The reactions are stopped by adding 25 μL phosphoric acid (150 mM) to the reactions.
The completely terminated kinase reactions are transferred using a harvester on pre-wetted UniFilter-96 plates (UniFilter-96 GF/B, PerkinElmer Inc., Cat #6005177).
After harvesting the kinase reactions, the filter plates are washed 6 times with phosphoric acid (75 mM). The back of the UniFilter-96 plates are sealed and 40 μL MicroScint-20 (PerkinElmer Inc., Cat #6013621) is added to each well. The top of each plate is sealed with TopSeal-A (PerkinElmer Inc., Cat #6050185). Read-out is performed with a TopCount instrument (PerkinElmer Inc.).
Raw data are generated following the read-out performed on the TopCount, used to calculate percentage inhibition (PIN) values and plotted to generate dose response curves and derive the average half maximal inhibitory concentrations (IC50) reported in Table VI.

T1 sequence (Q96RG2 whole entry): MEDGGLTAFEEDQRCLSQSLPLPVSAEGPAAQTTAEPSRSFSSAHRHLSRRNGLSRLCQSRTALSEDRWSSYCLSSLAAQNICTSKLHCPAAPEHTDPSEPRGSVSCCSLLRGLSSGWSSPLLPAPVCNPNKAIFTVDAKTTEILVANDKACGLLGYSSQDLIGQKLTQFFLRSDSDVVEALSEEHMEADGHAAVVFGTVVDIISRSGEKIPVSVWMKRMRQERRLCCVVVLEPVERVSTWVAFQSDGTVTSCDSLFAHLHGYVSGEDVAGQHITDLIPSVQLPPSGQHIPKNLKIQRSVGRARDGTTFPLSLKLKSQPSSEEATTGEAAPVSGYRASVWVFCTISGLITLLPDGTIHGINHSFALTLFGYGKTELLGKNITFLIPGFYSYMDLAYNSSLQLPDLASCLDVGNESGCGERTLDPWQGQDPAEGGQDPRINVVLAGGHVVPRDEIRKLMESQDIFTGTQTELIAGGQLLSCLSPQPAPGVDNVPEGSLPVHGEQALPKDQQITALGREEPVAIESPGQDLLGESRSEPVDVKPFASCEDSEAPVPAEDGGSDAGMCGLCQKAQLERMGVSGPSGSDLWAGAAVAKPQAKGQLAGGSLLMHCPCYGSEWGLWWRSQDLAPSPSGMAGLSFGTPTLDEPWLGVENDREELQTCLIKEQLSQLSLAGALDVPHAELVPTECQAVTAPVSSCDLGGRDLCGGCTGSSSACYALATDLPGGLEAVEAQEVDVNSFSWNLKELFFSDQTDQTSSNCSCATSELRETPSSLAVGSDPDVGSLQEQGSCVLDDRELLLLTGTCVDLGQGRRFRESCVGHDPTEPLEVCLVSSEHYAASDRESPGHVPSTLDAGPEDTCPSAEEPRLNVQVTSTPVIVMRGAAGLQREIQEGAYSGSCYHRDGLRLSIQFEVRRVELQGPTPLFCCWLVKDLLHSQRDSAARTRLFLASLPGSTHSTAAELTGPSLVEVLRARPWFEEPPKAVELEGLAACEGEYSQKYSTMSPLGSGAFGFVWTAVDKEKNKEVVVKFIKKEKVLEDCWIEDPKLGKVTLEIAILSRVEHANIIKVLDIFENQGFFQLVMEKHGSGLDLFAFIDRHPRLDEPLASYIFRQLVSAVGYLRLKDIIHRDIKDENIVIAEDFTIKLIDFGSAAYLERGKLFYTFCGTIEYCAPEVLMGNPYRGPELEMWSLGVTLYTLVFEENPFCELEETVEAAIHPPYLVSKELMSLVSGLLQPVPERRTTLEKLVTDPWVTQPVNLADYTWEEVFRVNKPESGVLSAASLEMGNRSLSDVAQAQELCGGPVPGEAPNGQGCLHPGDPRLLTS

Compound Cc1noc(C)c1-c1cnn2ccc(-c3cc(C(=O)O)co3)cc12 [Cpd 4, 5-[3-(3,5-dimethylisoxazol-4-yl)pyrazolo[1,5-a]pyridin-5-yl]furan-3-carboxylic acid] has an IC50 (human PASK [1]) of 0.01 to 10 nM and an IC50 (human PASK [2]) of 0.01 to 10 nM.

Compound Cc1nn(C)cc1-c1cnn2ccc(-c3cc(C(=O)O)co3)cc12 [Cpd 14, 5-[3-(1,3-dimethylpyrazol-4-yl)pyrazolo[1,5-a]pyridin-5-yl]furan-3-carboxylic acid] has an IC50 (human PASK [1]) of 0.01 to 10 nM and an IC50 (human PASK [2]) of 0.01 to 10 nM.

Cc1nn(C)c(C)c1-c1cnn2ccc(-c3cc(C(=O)O)c(C4CC4)o3)cc12 [Cpd 15, 2-cyclopropyl-5-[3-(1,3,5-trimethylpyrazol-4-yl)pyrazolo[1,5-a]pyridin-5-yl]furan-3-carboxylic acid] was tested, and the IC50 (human PASK [1]) was 0.01 to 10 nM and the IC50 (human PASK [2]) was 0.01 to 10 nM.

CCOc1nc(-c2ccn3ncc(-c4c(C)noc4C)c3c2)sc1C(=O)O [Cpd 17, 2-[3-(3,5-dimethylisoxazol-4-yl)pyrazolo[1,5-a]pyridin-5-yl]-4-ethoxy-thiazole-5-carboxylic acid] gave an IC50 (human PASK [1]) of 0.01 to 10 nM and an IC50 (human PASK [2]) of 0.01 to 10 nM.

With Cc1noc(C)c1-c1cnn2ccc(-c3nc(C(=O)O)co3)cc12 [Cpd 20, 2-[3-(3,5-dimethylisoxazol-4-yl)pyrazolo[1,5-a]pyridin-5-yl]oxazole-4-carboxylic acid] the IC50 (human PASK [1]) was 100 to 500 nM and the IC50 (human PASK [2]) was 10 to 100 nM.

Cc1nn(C)c(C)c1-c1cnn2ccc(-c3cc(C(=O)O)c(CC(C)C)o3)cc12 [Cpd 27, 2-isobutyl-5-[3-(1,3,5-trimethylpyrazol-4-yl)pyrazolo[1,5-a]pyridin-5-yl]furan-3-carboxylic acid] showed an IC50 (human PASK [2]) of 0.01 to 10 nM.

CCn1nc(C)c(-c2cnn3ccc(-c4ncc(C(=O)O)s4)cc23)c1C [Cpd 29, 2-[3-(1-ethyl-3,5-dimethyl-pyrazol-4-yl)pyrazolo[1,5-a]pyridin-5-yl]thiazole-5-carboxylic acid] gave an IC50 (human PASK [1]) of 0.01 to 10 nM and an IC50 (human PASK [2]) of 0.01 to 10 nM.

Cc1nn(C(C)C)c(C)c1-c1cnn2ccc(-c3ncc(C(=O)O)s3)cc12 [Cpd 30, 2-[3-(1-isopropyl-3,5-dimethyl-pyrazol-4-yl)pyrazolo[1,5-a]pyridin-5-yl]thiazole-5-carboxylic acid] showed an IC50 (human PASK [1]) of 0.01 to 10 nM and an IC50 (human PASK [2]) of 0.01 to 10 nM.

In the case of Cc1noc(C)c1-c1cnn2ccc(-c3ccc(C(=O)O)o3)cc12 [Cpd 31, 5-[3-(3,5-dimethylisoxazol-4-yl)pyrazolo[1,5-a]pyridin-5-yl]furan-2-carboxylic acid], the IC50 (human PASK [2]) is reported as 10 to 100 nM.

Work on Cc1c(-c2cnn3ccc(-c4nc(C(=O)O)co4)cc23)cnn1C [Cpd 33, 2-[3-(1,5-dimethylpyrazol-4-yl)pyrazolo[1,5-a]pyridin-5-yl]oxazole-4-carboxylic acid] yielded an IC50 (human PASK [2]) of 10 to 100 nM.

Compound Cc1noc(C)c1-c1cnn2ccc(-c3nc(C(=O)O)c(C)o3)cc12 [Cpd 34, 2-[3-(3,5-dimethylisoxazol-4-yl)pyrazolo[1,5-a]pyridin-5-yl]-5-methyl-oxazole-4-carboxylic acid] has an IC50 (human PASK [1]) of 10 to 100 nM and an IC50 (human PASK [2]) of 10 to 100 nM.

With Cc1noc(C)c1-c1cnn2ccc(-c3nc(C(F)(F)F)c(C(=O)O)o3)cc12 [Cpd 36, 2-[3-(3,5-dimethylisoxazol-4-yl)pyrazolo[1,5-a]pyridin-5-yl]-4-(trifluoromethyl) oxazole-5-carboxylic acid] the IC50 (human PASK [1]) was 100 to 500 nM and the IC50 (human PASK [2]) was 100 to 500 nM.

With Cc1noc(C)c1-c1cnn2ccc(-c3nc(C4CC4)c(C(=O)O)s3)cc12 [Cpd 37, 4-cyclopropyl-2-[3-(3,5-dimethylisoxazol-4-yl)pyrazolo[1,5-a]pyridin-5-yl]thiazole-5-carboxylic acid] the IC50 (human PASK [1]) was 0.01 to 10 nM and the IC50 (human PASK [2]) was 0.01 to 10 nM.

For Cc1noc(C)c1-c1cnn2ccc(-c3cc(C(=O)O)c(C4=CCOCC4)o3)cc12 [Cpd 41, 2-(3,6-dihydro-2H-pyran-4-yl)-5-[3-(3,5-dimethyl-isoxazol-4-yl)pyrazolo[1,5-a]pyridin-5-yl]furan-3-carboxylic acid], the IC50 (human PASK [2]) was 0.01 to 10 nM.

In the case of Cc1noc(C)c1-c1cnn2ccc(-c3cc(C(=O)O)c(C4CCOCC4)o3)cc12 [Cpd 44, 5-[3-(3,5-dimethylisoxazol-4-yl)pyrazolo[1,5-a]pyridin-5-yl]-2-tetrahydropyran-4-yl-furan-3-carboxylic acid], the IC50 (human PASK [1]) is reported as 0.01 to 10 nM and the IC50 (human PASK [2]) is reported as 0.01 to 10 nM.

Cc1noc(C)c1-c1cnn2ccc(-c3nc(C(F)F)c(C(=O)O)s3)cc12 [Cpd 45, 4-(difluoromethyl)-2-[3-(3,5-dimethylisoxazol-4-yl)pyrazolo[1,5-a]pyridin-5-yl]thiazole-5-carboxylic acid] showed an IC50 (human PASK [2]) of 10 to 100 nM.

Cc1nn(C(C)C)c(C)c1-c1cnn2ccc(-c3nc(C(F)F)c(C(=O)O)s3)cc12 [Cpd 46, 4-(difluoromethyl)-2-[3-(1-isopropyl-3,5-dimethyl-pyrazol-4-yl)pyrazolo[1,5-a]pyridin-5-yl]thiazole-5-carboxylic acid] was tested, and the IC50 (human PASK [2]) was 0.01 to 10 nM.
